Target: H1047R PIK3CA enzyme (Homo sapiens, UniProt P42336, H1047R)
Assay: ADP-Glo Biochemical PIK3CA Kinase Assay

H1047R PIK3CA enzyme, sequence (P42336 whole entry H1047R): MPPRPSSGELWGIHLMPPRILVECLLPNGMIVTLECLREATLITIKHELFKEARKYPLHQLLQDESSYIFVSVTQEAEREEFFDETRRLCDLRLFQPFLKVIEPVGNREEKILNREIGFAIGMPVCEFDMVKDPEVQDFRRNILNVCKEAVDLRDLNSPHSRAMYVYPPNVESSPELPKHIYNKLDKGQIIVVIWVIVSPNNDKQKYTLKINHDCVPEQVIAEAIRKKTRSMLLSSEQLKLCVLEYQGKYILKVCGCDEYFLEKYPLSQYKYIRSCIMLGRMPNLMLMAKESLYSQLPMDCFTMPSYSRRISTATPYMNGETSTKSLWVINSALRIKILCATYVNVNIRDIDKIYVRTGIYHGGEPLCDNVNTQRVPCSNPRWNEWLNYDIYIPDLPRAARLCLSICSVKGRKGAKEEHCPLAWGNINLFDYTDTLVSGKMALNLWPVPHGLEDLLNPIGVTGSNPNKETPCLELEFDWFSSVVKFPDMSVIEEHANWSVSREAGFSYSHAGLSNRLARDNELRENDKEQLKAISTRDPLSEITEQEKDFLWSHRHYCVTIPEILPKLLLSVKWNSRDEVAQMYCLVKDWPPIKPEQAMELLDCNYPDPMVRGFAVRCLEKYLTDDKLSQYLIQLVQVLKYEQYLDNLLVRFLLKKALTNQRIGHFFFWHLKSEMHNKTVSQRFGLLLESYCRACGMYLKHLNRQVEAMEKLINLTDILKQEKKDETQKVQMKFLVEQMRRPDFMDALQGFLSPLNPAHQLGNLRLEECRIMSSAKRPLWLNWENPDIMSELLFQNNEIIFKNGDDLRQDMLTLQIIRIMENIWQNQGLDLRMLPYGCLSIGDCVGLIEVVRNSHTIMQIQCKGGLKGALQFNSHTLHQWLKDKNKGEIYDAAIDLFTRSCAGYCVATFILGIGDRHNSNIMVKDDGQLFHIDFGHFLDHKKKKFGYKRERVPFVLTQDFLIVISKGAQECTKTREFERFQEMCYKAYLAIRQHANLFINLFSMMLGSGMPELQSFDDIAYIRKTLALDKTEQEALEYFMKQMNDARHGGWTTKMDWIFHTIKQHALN
H1047R PIK3CA enzyme, sequence (P27986 whole entry partner): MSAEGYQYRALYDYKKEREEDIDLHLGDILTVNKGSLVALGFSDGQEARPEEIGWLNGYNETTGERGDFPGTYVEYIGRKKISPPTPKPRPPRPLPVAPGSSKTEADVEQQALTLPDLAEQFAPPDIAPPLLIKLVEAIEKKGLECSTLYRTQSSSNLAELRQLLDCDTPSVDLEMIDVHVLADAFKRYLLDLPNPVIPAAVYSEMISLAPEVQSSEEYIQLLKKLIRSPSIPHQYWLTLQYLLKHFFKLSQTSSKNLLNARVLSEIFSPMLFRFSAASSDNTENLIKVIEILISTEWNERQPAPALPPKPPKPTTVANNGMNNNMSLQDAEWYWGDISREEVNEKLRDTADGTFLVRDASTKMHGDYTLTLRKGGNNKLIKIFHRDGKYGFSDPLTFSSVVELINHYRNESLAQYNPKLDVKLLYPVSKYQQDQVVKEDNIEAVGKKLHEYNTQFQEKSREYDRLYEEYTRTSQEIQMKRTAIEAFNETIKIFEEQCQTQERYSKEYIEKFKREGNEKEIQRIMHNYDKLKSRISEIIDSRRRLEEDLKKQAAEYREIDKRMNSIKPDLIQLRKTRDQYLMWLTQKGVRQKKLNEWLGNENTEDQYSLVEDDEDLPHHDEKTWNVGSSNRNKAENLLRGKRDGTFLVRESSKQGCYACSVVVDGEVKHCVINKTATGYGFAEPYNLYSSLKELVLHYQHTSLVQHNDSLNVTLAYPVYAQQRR

Structure (SMILES) | IC50 [µM]
O=C(Nc1cccc2c1C(C1CCCN1)NC2=O)c1cc(F)cc(C(F)(F)F)c1 (racemic) [Compound I-1956] | 10 to 100
O=C(Nc1cccc2c1C(C1CCC1)NC2=O)c1cc(F)cc(C(F)(F)F)c1 (stereo not drawn) [Compound I-1731] | 10 to 100
NS(=O)(=O)c1cc(-c2ccc3ncnn3c2)cc2c1[C@H](c1cc(F)ccc1Cl)NC2=O [Compound I-2101] | 10 to 100
O=C1NC(c2cc(F)ccc2Cl)c2c(Nc3nccc4cc[nH]c34)cc(Br)cc21 (stereo not drawn) [Compound I-1460] | 10 to 100
Cc1cc(=O)[nH]cc1C(=O)Nc1cc(Br)cc2c1[C@@H](c1cc(F)ccc1Cl)NC2=O [Compound I-2107] | 10 to 100
O=C1NC(c2cc(F)ccc2Cl)c2c(Nc3nsc4ccccc34)cc(Br)cc21 (stereo not drawn) [Compound I-1060] | 10 to 100
COc1ccc(C(=O)Nc2cc(Br)cc3c2C(c2cc(F)ccc2Cl)NC3=O)cc1 (stereo not drawn) [Compound I-465] | 10 to 100
O=C(Nc1ccc(C(F)(F)F)cc1)c1cccc2c1C(c1cc(F)ccc1Cl)NC2=O (stereo not drawn) [Compound I-2316] | 10 to 100
Nc1csnc1C(=O)Nc1cc(Br)cc2c1C(c1cc(F)ccc1Cl)NC2=O (stereo not drawn) [Compound I-1425] | 10 to 100
NC(=O)c1cnccc1-c1cc(NC(=O)c2cc(F)cc(Cl)c2)c2c(n1)C(=O)NC2c1cc(F)ccc1Cl (stereo not drawn) [Compound I-507] | 1 to 10
O=C(Nc1cc(Br)cc2c1[C@@H](c1cccc(F)c1F)NC2=O)c1cc(F)cc(C(F)(F)F)c1 [Compound I-683] | 1 to 10
CN1CCN(C(=O)Nc2cc(Br)cc3c2C(c2cc(F)ccc2Cl)NC3=O)CC1(C)C (racemic) [Compound I-685] | 10 to 100
CN1CCCC[C@H]1C(=O)Nc1cc(-c2ccc3ncnn3c2)cc2c1[C@@H](c1cc(F)ccc1Cl)NC2=O (racemic) [Compound I-1947] | 10 to 100
CNS(=O)(=O)c1cc(-c2ccc3ncnn3c2)cc2c1C(c1cc(F)ccc1Cl)NC2=O (stereo not drawn) [Compound I-1977] | 10 to 100
O=C1NC(c2cc(F)ccc2Cl)c2c(NC(=O)N3CC(O)(c4scnc4C(F)(F)F)C3)cccc21 (stereo not drawn) [Compound I-2417] | 10 to 100
O=C(Nc1cccc2c1C([C@@H]1CCCC[C@H]1O)NC2=O)c1cc(F)cc(C(F)(F)F)c1 (single isomer, unassigned) [Compound I-1971] | 10 to 100

Structure (SMILES) | IC50 [µM]
CNc1cc(NC(=O)N2C[C@@](O)(C(F)(F)F)c3cc(F)ccc32)c2c(n1)C(=O)N[C@@H]2c1cc(F)ccc1Cl (single isomer, unassigned) [Compound I-2645] | 1 to 10
CCCCc1ccc(Cl)c(C2NC(=O)c3cccc(NC(=O)c4cc(O)cc(C(F)(F)F)c4)c32)c1 (stereo not drawn) [Compound I-2391] | 1 to 10
O=C1NC(c2cc(F)ccc2Cl)c2c(NC(=O)N3CCC4(C3)CC4(F)F)cc(-c3ccc4ncnn4c3)cc21 (stereo not drawn) [Compound I-1722] | 1 to 10
O=C1N[C@@H](c2cc(F)ccc2Cl)c2c(NC(=O)N3C[C@](O)(C(F)F)c4cc(F)ccc43)cccc21 (single isomer, unassigned) [Compound I-2557] | 1 to 10
O=C(Nc1cccc2c1C(C1(O)CCCCC1)NC2=O)c1cc(F)cc(C(F)(F)F)c1 (stereo not drawn) [Compound I-1967] | 10 to 100
O=C1N[C@H](c2cc(F)ccc2Cl)c2c(NC(=O)N3C[C@@](O)(C(F)(F)F)c4cc(F)ccc43)cccc21 (single isomer, unassigned) [Compound I-2514] | 10 to 100
O=C1NC(c2cc(F)ccc2Cl)c2c(NC(=O)N3CCc4cc(Cl)ccc43)cc(Br)cc21 (stereo not drawn) [Compound I-1269] | 1 to 10
Cc1nccn1-c1cc(NC(=O)N2C[C@@](O)(C(F)(F)F)c3cc(F)ccc32)c2c(c1)C(=O)N[C@H]2c1cc(F)ccc1Cl (single isomer, unassigned) [Compound I-2663] | 1 to 10
Cn1nc(Nc2cc(Br)cc3c2C(c2cc(F)ccc2Cl)NC3=O)c2ccccc21 (stereo not drawn) [Compound I-1349] | 10 to 100
O=C1N[C@H](c2cc(F)ccc2Cl)c2c(NC(=O)N3C[C@](O)(C(F)(F)F)c4cc(F)ccc43)cc(Cl)nc21 (single isomer, unassigned) [Compound I-2702] | 1 to 10
N#CC1(COc2cc(NC(=O)N3C[C@@H](O)c4cc(F)ccc43)c3c(c2)C(=O)N[C@H]3c2cc(F)ccc2Cl)CC1 (single isomer, unassigned) [Compound I-2551] | 1 to 10
O=C1NC(c2cc(F)ccc2Cl)c2c1cc(-c1ccc3ncnn3c1)cc2N1CCN(C(=O)C(F)(F)F)CC1 (stereo not drawn) [Compound I-2046] | 10 to 100
O=C1NC(c2cc(F)ccc2Cl)c2c(NC(=O)C34C5C6C7C5C3C7C64)cc(Br)cc21 (stereo not drawn) [Compound I-1182] | 1 to 10
NC(=O)CC(=O)Nc1cc(-c2ccc3ncnn3c2)cc2c1C(c1cc(F)ccc1Cl)NC2=O (stereo not drawn) [Compound I-1983] | 10 to 100
O=C1NC(c2cc(F)ccc2Cl)c2c(NC(=O)N3CCC(O)(C(F)(F)F)C3)cc(-c3ccc4ncnn4c3)cc21 (stereo not drawn) [Compound I-1904] | 10 to 100

Other lines, results leading:

IC50 [µM] | Structure (SMILES)
≤ 0.1 | O=C(Nc1cc(C2CCCO2)cc2c1C(c1cc(F)ccc1Cl)NC2=O)c1cc(F)cc(C(F)(F)F)c1 (stereo not drawn) [Compound I-364]
≤ 0.1 | O=C1NC(c2cc(F)c(F)cc2C(F)F)c2c(NC(=O)c3nsc4ccc(F)cc34)cccc21 (stereo not drawn) [Compound I-332]
≤ 0.1 | O=C(Nc1cc(-c2ccc3nnnn3c2)cc2c1[C@H](c1cc(F)ccc1Cl)NC2=O)c1cc(F)cc(C(F)(F)F)c1 [Compound I-1453]
1 to 10 | O=C1NC(c2cc(F)ccc2Cl)c2c(NC(=O)c3noc4c3CCCC4)cccc21 (stereo not drawn) [Compound I-2238]
1 to 10 | C[C@H](c1cc(NC(=O)c2cc(F)cc(C(F)(F)F)c2)c2c(c1)C(=O)N[C@@H]2c1cc(F)ccc1Cl)S(C)(=O)=O (single isomer, unassigned) [Compound I-1643]
≤ 0.1 | N#Cc1cc(NC(=O)c2cc(F)cc(C(F)(F)F)c2)c2c(c1)C(=O)N[C@H]2c1cc(F)ccc1Cl (single isomer, unassigned) [Compound I-771]
1 to 10 | O=C(Nc1cc(-c2ccn[nH]2)cc2c1[C@@H](c1cc(F)ccc1Cl)NC2=O)c1cc(F)cc(C(F)(F)F)c1 [Compound I-866]
≤ 0.1 | O=C(Nc1cc(-c2ccc3ncnn3c2)c(Cl)c2c1C(c1cc(F)ccc1Cl)NC2=O)c1cc(F)cc(C(F)(F)F)c1 (stereo not drawn) [Compound I-1667]
0.1 to 0.5 | O=C(Nc1cc(-c2ccncc2C(=O)O)cc2c1C(c1cc(F)ccc1Cl)NC2=O)c1cc(F)cc(C(F)(F)F)c1 (stereo not drawn) [Compound I-1217]
≤ 0.1 | CC(C)(O)c1cc(NC(=O)c2coc3c(F)cc(F)cc23)c2c(c1)C(=O)NC2c1cc(F)ccc1C(F)F (stereo not drawn) [Compound I-290]
0.1 to 0.5 | Cc1ccccc1C1NC(=O)c2nccc(NC(=O)N3CC(C)c4ccccc43)c21 (stereo not drawn) [Compound I-249]
1 to 10 | CN1C(=O)CC[C@H]1COc1cc(NC(=O)c2cc(F)cc(C(F)(F)F)c2)c2c(c1)C(=O)N[C@@H]2c1cc(F)ccc1Cl (single isomer, unassigned) [Compound I-1568]
1 to 10 | Cc1nccn1-c1cc(NC(=O)N2C[C@](O)(C(F)(F)F)c3cc(F)ccc32)c2c(c1)C(=O)N[C@H]2c1cc(F)ccc1Cl (single isomer, unassigned) [Compound I-2664]
≤ 0.1 | CC(C)n1cc(-c2cc(NC(=O)c3cc(F)cc(C(F)(F)F)c3)c3c(c2)C(=O)N[C@H]3c2cc(F)ccc2Cl)ccc1=O [Compound I-743]
0.5 to 1 | O=C(Nc1cccc2c1[C@H](CC1CCCCC1)NC2=O)c1cc(F)cc(C(F)(F)F)c1 [Compound I-2058]
1 to 10 | O=C1NC(c2cc(F)ccc2Cl)c2c1cc(-c1cnn(C(F)F)c1)cc2-c1nc2cc(C(F)(F)F)cc(F)c2[nH]1 (stereo not drawn) [Compound I-2048]

IC50 [µM] | Structure (SMILES)
0.1 to 0.5 | Cn1ccc(-c2cc(NC(=O)c3cc(F)cc(Cl)c3)c3c(n2)C(=O)NC3c2cc(F)ccc2Cl)cc1=O (stereo not drawn) [Compound I-499]
1 to 10 | O=C1NC(c2cc(F)ccc2Cl)c2c(NC(=O)N3CCCC34CC4)cccc21 (stereo not drawn) [Compound I-2467]
0.1 to 0.5 | O=C1NC(c2cc(F)ccc2Cl)c2c(NC(=O)n3ncc4ccccc43)cccc21 (stereo not drawn) [Compound I-2373]
≤ 0.1 | N#Cc1cc2ncnn2cc1-c1cc(NC(=O)c2cc(F)cc(C(F)(F)F)c2)c2c(c1)C(=O)N[C@@H]2c1cc(F)ccc1Cl (single isomer, unassigned) [Compound I-1646]
1 to 10 | O=C(Nc1cc(Br)cc2c1C(c1cc(F)ccc1Cl)NC2=O)c1cc(Cl)cc2c1NCCO2 (stereo not drawn) [Compound I-1242]
≤ 0.1 | O=C(Nc1cc(NCC(F)(F)F)nc2c1C(c1cc(F)ccc1Cl)NC2=O)c1cc(F)cc(C(F)(F)F)c1 (stereo not drawn) [Compound I-321]
≤ 0.1 | Cn1cc(C#Cc2cc(NC(=O)c3cc(F)cc(C(F)(F)F)c3)c3c(c2)C(=O)NC3c2cc(F)ccc2Cl)cn1 (stereo not drawn) [Compound I-1155]
≤ 0.1 | O=C(Nc1cc(N[C@H]2C[C@@H](F)C2)cc2c1C(c1cc(F)ccc1Cl)NC2=O)c1cc(F)cc(C(F)(F)F)c1 (single isomer, unassigned) [Compound I-541]
0.1 to 0.5 | Cc1ccccc1[C@@H]1NC(=O)c2cccc(NC(=O)c3coc4c(F)cc(F)cc34)c21 [Compound I-98]
≤ 0.1 | Cn1cncc1C#Cc1cc(NC(=O)c2cc(F)cc(C(F)(F)F)c2)c2c(c1)C(=O)NC2c1cc(F)ccc1Cl (stereo not drawn) [Compound I-1247]
0.5 to 1 | CN(C)S(=O)(=O)n1nccc1-c1cc(NC(=O)c2cc(F)cc(C(F)(F)F)c2)c2c(c1)C(=O)N[C@@H]2c1cc(F)ccc1Cl [Compound I-1598]
0.1 to 0.5 | O=C(Nc1cc(C#CC2CC(F)(F)C2)cc2c1C(c1cc(F)ccc1Cl)NC2=O)c1cc(F)cc(C(F)(F)F)c1 (stereo not drawn) [Compound I-1194]
0.5 to 1 | Cc1ccccc1C1NC(=O)c2cccc(NC(=O)c3cc(F)cc(OC(F)(F)F)c3)c21 (stereo not drawn) [Compound I-318]
0.1 to 0.5 | O=C(CO)Nc1cc(NC(=O)c2cc(F)cc(C(F)(F)F)c2)c2c(c1)C(=O)N[C@@H]2c1cc(F)ccc1Cl [Compound I-512]
≤ 0.1 | O=C(Nc1cc(O[C@H]2CC[C@H]2O)cc2c1C(c1cc(F)ccc1Cl)NC2=O)c1cc(F)cc(C(F)(F)F)c1 (mixture of isomers) [Compound I-1210]
≤ 0.1 | O=C(Nc1cc(-c2ccc(=O)n(C3CC3)c2)nc2c1C(c1cc(F)ccc1Cl)NC2=O)c1cc(F)cc(C(F)(F)F)c1 (stereo not drawn) [Compound I-647]
